# Measured values as given in patent US20130338183A1, “COMPOSITIONS AND METHODS FOR MOBILIZING STEM CELLS” (The Johns Hopkins University, priority 2010, published 2013).
# Tested on: Lin-CD133+ cells in peripheral blood
# Experiment: Mobilization of bone marrow stem cells: Lin-CD133+ cells in peripheral blood by CBC and flow cytometry after subcutaneous injection
# Type: in vivo
# Details: low dose FK-506 (0.05 mg/kg, 0.1 mg/kg) subcutaneous, 3 hours after injection, Lewis rats
# From the text: Rat Strains and Care. Lewis (RT1^1) rats were purchased from Harlan ague-Dawley (Indianapolis, Ind.) and used at 8-10 weeks of age. Animals were maintained in the specific pathogen-free facility of Johns Hopkins Medical Institutions. Animals were cared for according to NIH guidelines and under a protocol approved by the Johns Hopkins University Animal Care Committee.
# Experimental Groups and Animal Treatment. Lewis rats were divided by six groups including control group (treated with same volume of saline) and low dose of FK-506 (0.05 mg, 0.1 mg or 1.0 mg/kg). FK506 was injected subcutaneously. Animals were sacrificed at 3 hours after injection. Spleen and peripheral blood were collected. Blood cell count was performed in animal pathology laboratory at Johns Hopkins.
# Flow Cytometry. Single-cell suspensions (5×10^5) of peripheral blood monocytes were analyzed for lineage negative and CD133 expression. Nonspecific antibody binding was blocked with goat and rat serum (Sigma) for 30 minutes.
# In this study, lineage negative (Lin−) CD133+ stem cell population in peripheral blood and spleen were quantified after FK-506 treatment. Complete blood count (CBC) was measured and stem cell markers were quantified by flow cytometry. The absolute number of stem cells was calculated as WBC (−thous./uL)×% of stem cells.
structure (smiles),measurement,value
"C=CC[C@@H]1/C=C(\C)C[C@H](C)C[C@H](OC)[C@H]2O[C@@](O)(C(=O)C(=O)N3CCCC[C@H]3C(=O)O[C@H](/C(C)=C/[C@@H]3CC[C@@H](O)[C@H](OC)C3)[C@H](C)[C@@H](O)CC1=O)[C@H](C)C[C@@H]2OC [FK-506, Tacrolimus]",increase of absolute number of Lin-CD133+ cells in peripheral blood compared to saline treated animals,about 3 times
